From US9901592B2 (priority 2008, dated 2018)
≈ marks a conversion by molar mass, not a printed value. Read-outs that look alike come from different tables or passages of the source.

Assays:
[1] = tested on: N. meningitidis; test: MIC, CLSI broth microdilution, invasive isolates; format: cell-based
Protocol: Example. […] Colonization of the nasopharynx (NP) by NM can lead to invasive meningococcal disease. Chemoprophylaxis is used to eradicate NP colonization and prevent transmission to nonimmune contacts. […] 62 isolates (91.9% blood culture) of NM were collected from 29 medical centers in North and South America and Europe (1997-2008). […] Serological identification was performed for serogroups (SGs) B, C, Y and W135.

[2] = tested on: pneumococci; test: microbe, parasite or virus in culture; format: cell-based, S. pneumoniae; details: Streptococcus pneumoniae, pneumococci, L4 mutations (27)
[3] = tested on: M. catarrhalis; test: microbe, parasite or virus in culture; format: cell-based; details: Moraxella catarrhalis
[4] = tested on: S. pyogenes; test: microbe, parasite or virus in culture; format: cell-based; details: for MIC: Streptococcus pyogenes
[5] = tested on: streptococci; test: organism not typed; format: cell-based
[6] = tested on: M. genitalium; format: cell-based; details: M. genitalium (5 isolates)
[7] = tested on: M. fermentans; format: cell-based; details: Mycoplasmopsis fermentans; M. fermentans (15 isolates)
[8] = tested on: S. pneumoniae; test: microbe, parasite or virus in culture; format: cell-based; details: Streptococcus pneumoniae
[9] = tested on: M. hominis; format: cell-based; details: M. hominis (13 isolates)
[10] = tested on: U. parvum; test: MIC testing in 10B broth (colour change); format: cell-based, Ureaplasma parvum; details: U. parvum (10 isolates)
[11] = tested on: S. pyogenes 3029; test: Intraperitoneal (IP) mouse infection model (ED50); format: in vivo; details: Streptococcus pyogenes, MAC-R S. pyogenes 3029
[12] = tested on: intraphagocytic L. pneumophila ATCC 33153 (THP-1); format: cell-based
[13] = tested on: U. urealyticum; test: MIC testing in 10B broth (colour change); format: cell-based; details: U. urealyticum (10 isolates)
[14] = tested on: M. pneumoniae; test: microbe, parasite or virus in culture; format: cell-based; details: Mycoplasmoides pneumoniae
[15] = Neisseria meningitidis, 62 N. meningitidis isolates

CC[C@H]1OC(=O)[C@H](C)[C@@H](O[C@H]2C[C@@](C)(OC)[C@@H](O)[C@H](C)O2)[C@H](C)[C@@H](O[C@@H]2O[C@H](C)C[C@H](N(C)C)[C@H]2O)[C@](C)(O)C[C@@H](C)CN(C)[C@H](C)[C@@H](O)[C@]1(C)O [AZI, azithromycin]
% Susc. ([1]; CLSI (M100-S19, 2009) criteria): 100.0%
MIC [1, 15]: 0.015 to 0.12 µg/mL (≈ 0.02 to 0.16 µM)
MIC50 [1, 15]: 0.06 µg/mL (≈ 0.0801 µM)
MIC90 [1, 15]: 0.12 µg/mL (≈ 0.16 µM)
MIC50 [2]: > 64 µg/mL
MIC90 [2]: > 64 µg/mL
MIC90 [3]: 0.06 µg/mL (≈ 0.0801 µM)
strains with resistant clones / strains tested ([4]; S. pyogenes): 3/4
MIC ([4]; read-out: Initial MIC, strain 237 Macrolide-R [LA mutation], parent): 4 µg/mL (≈ 5.34 µM)
MIC ([4]; read-out: Initial MIC, strain 2011 Macrolide-R [mef(A)], parent): 4 µg/mL (≈ 5.34 µM)
MIC ([4]; read-out: Initial MIC, strain 2094 Macrolide-R [erm(A)], parent): 4 µg/mL (≈ 5.34 µM)
MIC ([4]; read-out: Initial MIC, strain 2132 Macrolide-S, parent): 0.06 µg/mL (≈ 0.0801 µM)
MIC ([4]; read-out: Initial MIC, strain 2368 Macrolide-R [erm(B)], parent): > 64 µg/mL
MIC ([4]; read-out: MIC of parents of resistant clones, S. pyogenes): 0.06 to 4 µg/mL
MIC ([4]; read-out: Parental MICs, S. pyogenes, 5 strains with varying resistotypes): 0.06 to 4 µg/mL (≈ 0.0801 to 5.34 µM)
MIC ([4]; read-out: Selected Resistance (MIC), strain 237 Macrolide-R [LA mutation], after serial passages in the drug): 8 µg/mL (≈ 10.7 µM)
MIC ([4]; read-out: Selected Resistance (MIC), strain 2011 Macrolide-R [mef(A)], after serial passages in the drug): 32 µg/mL (≈ 42.7 µM)
MIC ([4]; read-out: Selected Resistance (MIC), strain 2094 Macrolide-R [erm(A)], after serial passages in the drug): > 64 µg/mL
MIC ([4]; read-out: Selected Resistance (MIC), strain 2132 Macrolide-S, after serial passages in the drug): 1 µg/mL (≈ 1.34 µM)
days until resistant clones (MIC increase) ([4]; daily passages, max. 50): 5 to 35 days
Retest MIC after 10 Antibioticfree Subcultures ([4]; strain 237 Macrolide-R [LA mutation], clone selected with CEM-101): 4 µg/mL
Retest MIC after 10 Antibioticfree Subcultures ([4]; strain 237 Macrolide-R [LA mutation], clone selected with CLN): 8 µg/mL
Retest MIC after 10 Antibioticfree Subcultures ([4]; strain 2011 Macrolide-R [mef(A)], clone selected with AZI): 16 µg/mL
Retest MIC after 10 Antibioticfree Subcultures ([4]; strain 2094 Macrolide-R [erm(A)], clone selected with AZI): >64 µg/mL
Retest MIC after 10 Antibioticfree Subcultures ([4]; strain 2094 Macrolide-R [erm(A)], clone selected with CEM-101): 4 µg/mL
Retest MIC after 10 Antibioticfree Subcultures ([4]; strain 2094 Macrolide-R [erm(A)], clone selected with CLN): 16 µg/mL
Retest MIC after 10 Antibioticfree Subcultures ([4]; strain 2094 Macrolide-R [erm(A)], clone selected with CLR): >64 µg/mL
Retest MIC after 10 Antibioticfree Subcultures ([4]; strain 2094 Macrolide-R [erm(A)], clone selected with TEL): >64 µg/mL
Retest MIC after 10 Antibioticfree Subcultures ([4]; strain 2132 Macrolide-S, clone selected with AZI): 1 µg/mL
Retest MIC after 10 Antibioticfree Subcultures ([4]; strain 2368 Macrolide-R [erm(B)], clone selected with CEM-101): >64 µg/mL
Retest MIC after 10 Antibioticfree Subcultures ([4]; strain 2368 Macrolide-R [erm(B)], clone selected with TEL): >64 µg/mL
MIC50 [5]: 0.06 µg/mL (≈ 0.0801 µM)
MIC90 [5]: 0.12 µg/mL (≈ 0.16 µM)
MIC Range [5]: ≦0.008-0.5 μg/ml
MIC Range [6]: ≦0.000032-0.005 μg/mL
MIC50 [7]: 0.5 µg/mL (≈ 0.668 µM)
MIC90 [7]: 0.5 µg/mL (≈ 0.668 µM)
MIC90 [8]: > 16 µg/mL
MIC Range [9]: 0.5 to 4 µg/mL
MIC Range [10]: 0.5 to 4 µg/mL
MIC50 ([10]; Ureaplasma parvum, read-out: MIC50): 2 µg/mL (≈ 2.67 µM)
MIC90 ([10]; Ureaplasma parvum, read-out: MIC90): 4 µg/mL (≈ 5.34 µM)
ED50 [11]: > 150 mg/kg
Cs ([12]; L. pneumophila ATCC 33153, 48 h): 181 ×MIC
Cs, static concentration ([12]; intracellular L. pneumophila ATCC 33153): 2.90 mg/L
MIC Range [13]: 0.5 to 4 µg/mL
MIC50 ([13]; Ureaplasma urealyticum): 2 µg/mL (≈ 2.67 µM)
MIC90 ([13]; Ureaplasma urealyticum): 4 µg/mL (≈ 5.34 µM)
MIC50 [14]: 0.00025 µg/mL (≈ 0.000334 µM)
MIC90 [14]: 0.0005 µg/mL (≈ 0.000668 µM)
